Experimental data: article PMC7065771, “Dietary supplementation of recombinant antimicrobial peptide Epinephelus lanceolatus piscidin improves growth performance and immune response in Gallus gallus domesticus” (PLoS ONE, 2020)

What was measured:
[1] = system: Riemerella anatipestifer (RA9); assay: Inhibition zone (disk diffusion) assay; format: cell-based; settings: disk paper on culture plate 16 h at 37°C, rEP: shake-flask supernatant 120 h after induction, maximum carrying capacity, ampicillin 2 mg/ml, 10 μl, read-out: Inhibition zone diameter
Method: (§1) All assays were performed in triplicate.
(§2) The antimicrobial activity of rEP from flask cultures was evaluated by determining its ability to prevent growth of Gram-positive and Gram-negative bacteria with a disk diffusion assay. […] The most susceptible pathogens were R. anatipestifer (CFC27) and R. anatipestifer (CFC437) (Table 3a). Next, we investigated the thermostability of flask-fermented rEP with regard to its toxicity toward S. aureus (BCRC 10780), E. coli (BCRC 10675) and P. aeruginosa (ATCC 19660). Empty vector with no insert in P. pastoris was used as a control. Thermostability was measured by disk diffusion assay after cultures were incubated for 5 min at 40, 60, 80, or 100°C (Table 3b).

[2] = system: Riemerella anatipestifer (CFC27); assay: Inhibition zone (disk diffusion) assay; format: cell-based; settings: Riemerella anatipestifer; disk paper 16 h at 37°C; ampicillin 2 mg/ml, 10 μl; read-out: Inhibition zone diameter
Method: as §1, §2

[3] = system: Pseudomonas aeruginosa (ATCC 19660); assay: Inhibition zone (disk diffusion) assay; format: cell-based; settings: Pseudomonas aeruginosa, ATCC19660; disk paper on culture plate 16 h at 37°C; rEP: shake-flask supernatant 120 h after induction, maximum carrying capacity; ampicillin 2 mg/ml, 10 μl; read-out: Inhibition zone diameter
Method: as §1, §2

[4] = system: Riemerella anatipestifer (RA3); assay: Inhibition zone (disk diffusion) assay; format: cell-based; settings: Riemerella anatipestifer; disk paper 16 h at 37°C; ampicillin 2 mg/ml, 10 μl; read-out: Inhibition zone diameter
Method: as §1, §2

[5] = system: Riemerella anatipestifer (CFC437); assay: Inhibition zone (disk diffusion) assay; format: cell-based; settings: Riemerella anatipestifer; disk paper 16 h at 37°C; ampicillin 2 mg/ml, 10 μl; read-out: Inhibition zone diameter
Method: as §1, §2

[6] = system: Riemerella anatipestifer (RA16); assay: Inhibition zone (disk diffusion) assay; format: cell-based; settings: disk paper on culture plate 16 h at 37°C, rEP: shake-flask supernatant 120 h after induction, maximum carrying capacity, ampicillin 2 mg/ml, 10 μl, read-out: Inhibition zone diameter
Method: as §1, §2

[7] = system: Escherichia coli (BCRC 10675); assay: Inhibition zone (disk diffusion) assay; format: cell-based; settings: Escherichia coli, BCRC10675; disk paper on culture plate 16 h at 37°C; rEP: shake-flask supernatant 120 h after induction, maximum carrying capacity; ampicillin 2 mg/ml, 10 μl; read-out: Inhibition zone diameter
Method: as §1, §2

[8] = system: Riemerella anatipestifer (CFC363); assay: Inhibition zone (disk diffusion) assay; format: cell-based; settings: disk paper on culture plate 16 h at 37°C, rEP: shake-flask supernatant 120 h after induction, maximum carrying capacity, ampicillin 2 mg/ml, 10 μl, read-out: Inhibition zone diameter
Method: as §1, §2

[9] = system: Staphylococcus aureus (BCRC 10780); assay: Inhibition zone (disk diffusion) assay; format: cell-based; settings: Staphylococcus aureus, BCRC10780; disk paper on culture plate 16 h at 37°C; rEP: shake-flask supernatant 120 h after induction, maximum carrying capacity; ampicillin 2 mg/ml, 10 μl; read-out: Inhibition zone diameter
Method: as §1, §2

MRSA = format: cell-based, Methicillin-resistant Staphylococcus aureus; settings: 24 h
Method: as §1

Vibrio parahaemolyticus = settings: synthetic peptide, microbroth dilution series, Gram -
Streptococcus equinus = format: cell-based; settings: 24 h
Method: as §1

Streptococcus agalactiae = format: cell-based; settings: 24 h
Method: as §1

Escherichia coli = format: cell-based; settings: 24 h
Method: as §1

[10] = system: Staphylococcus aureus subsp; format: cell-based; settings: 24 h
Method: as §1

Klebsiella oxytoca = format: cell-based; settings: 24 h
Method: as §1

Pseudomonas aeruginosa = format: cell-based; settings: 24 h
Method: as §1

Molecule	zone of inhibition at 2000 µg/mL [1]	zone of inhibition at 2000 µg/mL [2]	zone of inhibition at 2000 µg/mL [3]	zone of inhibition at 2000 µg/mL [4]	zone of inhibition at 2000 µg/mL [5]	zone of inhibition at 2000 µg/mL [6]	zone of inhibition at 2000 µg/mL [7]	zone of inhibition at 2000 µg/mL [8]	zone of inhibition at 2000 µg/mL [9]	MIC (MRSA)	MIC (Vibrio parahaemolyticus)	MIC (Streptococcus equinus)	MIC (Streptococcus agalactiae)	MIC (Escherichia coli)	MIC [10]	MIC (Klebsiella oxytoca)	MIC (Pseudomonas aeruginosa)
CC1(C)S[C@@H]2[C@H](NC(=O)[C@H](N)c3ccccc3)C(=O)N2[C@H]1C(=O)O [Ampicillin, reference compound]	31 ± 0.8 mm	43 ± 1.1 mm	11.6 ± 0.5 mm	12 ± 2.5 mm	15 ± 4.5 mm	30 ± 1.2 mm	13.6 ± 0.5 mm	32 ± 2.3 mm	14.6 ± 0.5 mm								
Ac-CFFRHIKSFWRGAKAIFRGARQGWRE-NH2 [G6497-t1]										60 µg/mL	60 µg/mL	15 µg/mL	60 µg/mL	30 µg/mL	60 µg/mL	30 µg/mL	
Ac-CIMKHLRNLWNGAKAIYNGAKAGWTEFK-NH2 [G6496-t1]												30 µg/mL	60 µg/mL	60 µg/mL	60 µg/mL	60 µg/mL	
Ac-GFIFHIIKGLFHAGRMIHGLVNRRRHRHGMEE-NH2 [G6498-t1]										5.6 µg/mL	5.6 µg/mL	11.2 µg/mL	90 µg/mL	22.5 µg/mL	90 µg/mL	45 µg/mL	45 µg/mL
